According to US7288554B2, “Ortho-substituted aryl amides for controlling invertebrate pests” (E.I. du Pont de Nemours and Company, priority 2001, dated 2007):

melting point: 69 to 73 °C
SMILES: Cc1cccc(S(=O)(=O)NC(C)C)c1NC(=O)c1cc(C(F)(F)F)nn1-c1ncccc1Cl [Compound B3, 1-(3-Chloro-2-pyridinyl)-N-[2-methyl-6-[[(1-methylethyl)amino]sulfonyl]phenyl]-3-(trifluoromethyl)-1H-pyrazole-5-carboxamide]
